Drawing on PubChem BioAssay (NCI), this text covers TGI and GI50 for 13 molecules.

Among the test systems are SNB-19 CNS; MOLT-4 leukemia; ACHN renal; SF-295 CNS; KM12 colon; 786-0 renal; OVCAR-5 ovarian; OVCAR-8 ovarian; OVCAR-4 ovarian; UACC-257 melanoma.
Holding throughout (experiment): NCI anticancer screen, dose series, 48 h

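96-well plates; 48 h exposure; 5 concentrations. Endpoints by linear interpolation between flanking doses. Not reached: highest tested concentration assigned. Abbreviation: GI50, concentration required for 50% inhibition of growth. At the TGI there is no net growth.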 A value given as a limit tells only on which side of the number the result lay.

Take `O=C(NO)C12C3C4C1C1C2C3C41C(=O)NO` (stereo not given): the TGI in the assay with SNB-19 CNS, with MOLT-4 leukemia, with ACHN renal, in the assay on SF-295 CNS, in the assay with KM12 colon and in the assay with 786-0 renal was more than 100 µM in each case. Besides, the TGI in the assay on OVCAR-5 ovarian and with OVCAR-8 ovarian was more than 100 µM each time.
For `NCCC(O)(P(=O)(O)O)P(=O)(O)O`, the GI50 in the assay on OVCAR-4 ovarian was more than 100 µM; in the assay on SNB-19 CNS, more than 100 µM; in the assay on MOLT-4 leukemia, more than 100 µM; with ACHN renal, 36 µM; with KM12 colon, more than 100 µM; with 786-0 renal it was more than 100 µM. The GI50 in the assay on OVCAR-5 ovarian was more than 100 µM; in the assay on UACC-257 melanoma, more than 100 µM; with OVCAR-8 ovarian, 3.47 µM. For the same molecule, the TGI in the assay on OVCAR-4 ovarian, in the assay on SNB-19 CNS, with MOLT-4 leukemia, in the assay on ACHN renal, with KM12 colon and with 786-0 renal was more than 100 µM each time. Also, the TGI with OVCAR-5 ovarian is more than 100 µM; in the assay with UACC-257 melanoma, more than 100 µM; in the assay on OVCAR-8 ovarian, 35.6 µM.
As for `CC1C=CC(=O)C(n2cc(F)c(=O)[nH]c2=O)O1` (stereo not given), the TGI in the assay with OVCAR-4 ovarian was found to be 34.3 µM; with SNB-19 CNS, 53.6 µM; in the assay on MOLT-4 leukemia, 48.7 µM; with ACHN renal, 36.8 µM; in the assay on 786-0 renal, 31.3 µM; in the assay with UACC-257 melanoma, 30 µM. The molecule also registered a TGI in the assay on OVCAR-8 ovarian of 65.4 µM.
For `Nc1nc2nc[nH]c2c(=O)[nH]1`, the TGI in the assay on OVCAR-4 ovarian, in the assay on ACHN renal, in the assay on SF-295 CNS, with KM12 colon, in the assay on 786-0 renal and with OVCAR-5 ovarian was more than 100 µM each time. Besides, the TGI in the assay on UACC-257 melanoma and in the assay on OVCAR-8 ovarian was more than 100 µM each time.
On to `CCN(CC)C(=O)COc1ccc(Br)cc1Br`, for which the TGI in the assay on OVCAR-4 ovarian, in the assay with SNB-19 CNS, in the assay with MOLT-4 leukemia, in the assay with ACHN renal, in the assay on SF-295 CNS and in the assay with KM12 colon was more than 100 µM each time. The TGI with 786-0 renal, with OVCAR-5 ovarian and in the assay with UACC-257 melanoma was more than 100 µM throughout.
As to `Cc1cc(O)cc2c1O[C@@]1(C)CCC3[C@@]4(C)CC[C@H](O)C(C)(C)C4CC[C@@]3(C)[C@H]1C2` (stereo not given in full), the TGI was determined as 4 µM with MOLT-4 leukemia; 19 µM in the assay on ACHN renal; 6.16 µM in the assay on SF-295 CNS; 21.4 µM in the assay with KM12 colon; 4.72 µM in the assay with 786-0 renal; 29.2 µM in the assay on UACC-257 melanoma. In the assay with OVCAR-8 ovarian, this molecule showed a TGI of 27 µM.
With `Nc1ccn(C2CC(CO)C(O)C2O)c(=O)n1` (stereo not given), the TGI in the assay with OVCAR-4 ovarian, in the assay on SNB-19 CNS, in the assay on MOLT-4 leukemia, in the assay with ACHN renal, with KM12 colon and in the assay with 786-0 renal was more than 57.7 µM in each case. Further, the TGI in the assay with UACC-257 melanoma and in the assay with OVCAR-8 ovarian was more than 57.7 µM each time.
In the case of `Cc1nc(NC(=O)CCCN2C(=O)c3cccc4cccc(c34)C2=O)sc1C(=O)Nc1cc(C(=O)NCCCN(C)C)n(C)c1`, the GI50 in the assay on OVCAR-4 ovarian was 94.8 µM; in the assay with SNB-19 CNS, more than 100 µM; with MOLT-4 leukemia it was more than 100 µM; in the assay on ACHN renal, more than 100 µM; in the assay on SF-295 CNS, more than 100 µM; with KM12 colon, more than 100 µM. Further, the GI50 with 786-0 renal and with OVCAR-5 ovarian was more than 100 µM throughout. In addition, the TGI in the assay with OVCAR-4 ovarian, with SNB-19 CNS, in the assay with MOLT-4 leukemia, in the assay on ACHN renal, in the assay with SF-295 CNS and in the assay with KM12 colon was more than 100 µM in each case. Further, the TGI in the assay with 786-0 renal and in the assay with OVCAR-5 ovarian was more than 100 µM each time.
For the molecule `Cc1ccc(Cl)c(NC(=O)C(=O)C(C(=O)c2ccncc2)C2OC(=O)c3ccccc32)c1` (stereo not given), the TGI with OVCAR-4 ovarian, with ACHN renal, in the assay on SF-295 CNS, in the assay with 786-0 renal, in the assay with UACC-257 melanoma and in the assay with OVCAR-8 ovarian was more than 100 µM each time.
Take `COc1ccc(-c2ccc(C3CC(c4ccc(Cl)cc4)=NN3)o2)c([N+](=O)[O-])c1` (stereo not given): the GI50 is more than 100 µM in the assay with OVCAR-4 ovarian; more than 100 µM in the assay with SNB-19 CNS; more than 100 µM in the assay with MOLT-4 leukemia; 43.5 µM with SF-295 CNS; more than 100 µM in the assay on 786-0 renal; more than 100 µM with OVCAR-5 ovarian. Besides, the GI50 in the assay on UACC-257 melanoma and in the assay on OVCAR-8 ovarian was more than 100 µM in each case. In addition, the TGI in the assay with OVCAR-4 ovarian, in the assay with SNB-19 CNS, in the assay with MOLT-4 leukemia, in the assay with SF-295 CNS, with 786-0 renal and in the assay on OVCAR-5 ovarian was more than 100 µM each time. In addition, the TGI in the assay with UACC-257 melanoma and in the assay with OVCAR-8 ovarian was more than 100 µM throughout.
For the molecule `Cc1ccccc1CN1CC=c2ccccc2=N1`, the TGI in the assay with OVCAR-4 ovarian, in the assay with SNB-19 CNS, in the assay with ACHN renal, in the assay with SF-295 CNS, in the assay with KM12 colon and with 786-0 renal was more than 100 µM throughout. In addition, the TGI in the assay with OVCAR-5 ovarian, with UACC-257 melanoma and with OVCAR-8 ovarian was more than 100 µM throughout.
As for `Nc1ccc(/C=N/Nc2ccnc3c(N)cccc23)c2cccnc12`, the GI50 in the assay with OVCAR-4 ovarian is 1.54 µM; in the assay on SF-295 CNS it was 1.57 µM; in the assay on KM12 colon, 1.7 µM; in the assay with 786-0 renal, 1.59 µM; with OVCAR-5 ovarian, 1.86 µM. Moreover, the TGI in the assay with OVCAR-4 ovarian amounted to 3.35 µM; in the assay on SF-295 CNS it was 3 µM; in the assay with KM12 colon, 3.49 µM; with 786-0 renal, 3.04 µM; in the assay with OVCAR-5 ovarian it was 3.44 µM.
Consider `COc1ccc(-c2nc(-c3nc4ccc(OC)cc4[nH]3)cc3c2[nH]c2ccccc23)cc1`, for which the GI50 is more than 100 µM with OVCAR-4 ovarian; 3.37 µM with SNB-19 CNS; 1.98 µM in the assay with MOLT-4 leukemia; 2.33 µM in the assay on ACHN renal; 2.57 µM in the assay on KM12 colon; 4.62 µM in the assay on 786-0 renal. Also, the GI50 was more than 100 µM in the assay on OVCAR-5 ovarian, 4.34 µM with UACC-257 melanoma and 1.04 µM in the assay on OVCAR-8 ovarian. The TGI in the assay with OVCAR-4 ovarian, with SNB-19 CNS, in the assay on MOLT-4 leukemia, in the assay with ACHN renal, in the assay with KM12 colon and in the assay on 786-0 renal was more than 100 µM each time. Further, the TGI with OVCAR-5 ovarian, in the assay on UACC-257 melanoma and in the assay with OVCAR-8 ovarian was more than 100 µM each time.
